Measured values taken from patent US8871767B2, “2-arylimidazo[1,2-B]pyridazine, 2-phenylimidazo[1,2-A]pyridine, and 2-phenylimidazo[1,2-A]pyrazine derivatives” (Hengrui (USA) Ltd., priority 2010, dated 2014).
pIC50: −log10 of the molar value.

What follows are compounds tested on Hedgehog pathway activation (GLi-luciferase reporter) in Shh Light II reporter cells (assay: Hedgehog pathway activation on Shh Light II reporter cells measured by luciferase activity). Details: Mus musculus, Shh Light II, hShh activation, read-out: Shh (IC50, inhibition of Hedgehog pathway activation).
Assay type: cell-based
Method in brief: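 Shh Light II reporter cells carrying a hedgehog-responsive GLi-luciferase reporter were stimulated either with 500 nM SAG, a direct Smoothened agonist, or with conditioned media containing human Sonic Hedgehog (hShh). Test compounds were evaluated for blocking this pathway activation, quantified by luciferase activity. Cell viability was monitored in parallel with the Celltiter-Blue® assay.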

pIC50 | Structure (SMILES)
< 5.00 | Cc1ccc(-c2cn3nc(Cl)ccc3n2)cc1NC(=O)C1(C)CC1 [compound 517]
5.77 | Cc1ccc(-c2cn3nc(-c4ccc(O)cc4)ccc3n2)cc1NC(=O)C(C)(C)C [compound 519]
< 5.00 | Cc1ccc(-c2cn3nc(-c4ccc(C(=O)O)cc4)ccc3n2)cc1NC(=O)C(C)(C)C [compound 521]
5.89 | CC(=O)c1ccc(-c2ccc3nc(-c4ccc(C)c(NC(=O)C(C)(C)C)c4)cn3n2)cc1 [compound 522]
5.02 | Cc1ccc(-c2cn3nc(-c4ccc(C(=O)O)cc4F)ccc3n2)cc1NC(=O)C(C)(C)C [compound 523]
6.11 | Cc1ccc(-c2cn3nc(-c4ccc(C(N)=O)cc4)ccc3n2)cc1NC(=O)C(C)(C)C [compound 526]
5.98 | CC(=O)c1cccc(-c2ccc3nc(-c4ccc(C)c(NC(=O)C(C)(C)C)c4)cn3n2)c1 [compound 527]
5.23 | Cc1ccc(-c2cn3nc(-c4cccc(C(=O)O)c4)ccc3n2)cc1NC(=O)C(C)(C)C [compound 528]
6.43 | Cc1ccc(-c2cn3nc(-c4cncc(C(F)(F)F)c4)ccc3n2)cc1NC(=O)C(C)(C)C [compound 536, N-(2-methyl-5-(6-(5-(trifluoromethyl)pyridin-3-yl)imidazo[1,2-b]pyridazin-2-yl)phenyl)pivalamide]
6.13 | Cc1ccc(-c2cn3nc(-c4ccc(C(N)=O)nc4)ccc3n2)cc1NC(=O)C(C)(C)C [compound 537]
6.37 | Cc1ccc(-c2cn3nc(-c4ccc(C(N)=O)cn4)ccc3n2)cc1NC(=O)C(C)(C)C [compound 538, 6-(2-(4-methyl-3-pivalamidophenyl)imidazo[1,2-b]pyridazin-6-yl)nicotinamide]
6.10 | Cc1ccc(-c2cn3nc(-c4ccc(O)cc4F)ccc3n2)cc1NC(=O)C(C)(C)C [compound 547]
6.12 | Cc1ccc(-c2cn3nc(-c4ccc(O)cc4Cl)ccc3n2)cc1NC(=O)C(C)(C)C [compound 548]
6.38 | Cc1ccc(-c2cn3nc(-c4ccc(N)cc4)ccc3n2)cc1NC(=O)C(C)(C)C [compound 550]
6.22 | CCOC(=O)C=Cc1ccc2nc(-c3ccc(C)c(NC(=O)C(C)(C)C)c3)cn2n1 [compound 572]
6.44 | Cc1ccc(-c2cn3nc(-c4ccc(C#N)cc4C)ccc3n2)cc1NC(=O)C(C)(C)C [compound 574]
6.22 | Cc1ccc(-c2cn3nc(-c4cccc(N)n4)ccc3n2)cc1NC(=O)C(C)(C)C [compound 575, N-(5-(6-(6-aminopyridin-2-yl)imidazo[1,2-b]pyridazin-2-yl)-2-methylphenyl)pivalamide]
6.81 | Cc1ccc(-c2cn3nc(-c4ccc(C(N)=NO)cc4C)ccc3n2)cc1NC(=O)C(C)(C)C [compound 576]
5.03 | Cc1ccc(-c2cn3nc(C=CC(=O)NO)ccc3n2)cc1NC(=O)C(C)(C)C [compound 578]
6.50 | Cc1ccc(-c2cn3nc(-c4cc(C=CC(=O)NO)ccc4Cl)ccc3n2)cc1NC(=O)C(C)(C)C [compound 579]
7.09 | Cc1ccc(-c2cn3nc(-c4cccnc4C#N)ccc3n2)cc1NC(=O)C(C)(C)C [compound 581, N-(5-(6-(2-cyanopyridin-3-yl)imidazo[1,2-b]pyridazin-2-yl)-2-methylphenyl)pivalamide]
6.13 | COC(=O)c1cccc(-c2ccc3nc(-c4ccc(C)c(NC(=O)C(C)(C)C)c4)cn3n2)c1 [compound 583]
6.30 | Cc1ccc(-c2cn3nc(-c4cccc(C(=O)NO)c4)ccc3n2)cc1NC(=O)C(C)(C)C [compound 589]
6.24 | Cc1ccc(-c2cn3nc(N)ccc3n2)cc1NC(=O)C(C)(C)C [compound 591, N-(5-(6-aminoimidazo[1,2-b]pyridazin-2-yl)-2-methylphenyl)pivalamide]
5.69 | Cc1ccc(-c2cn3nc(NCc4ccc(CO)cc4)ccc3n2)cc1NC(=O)C(C)(C)C [compound 593]
5.68 | CCOC(=O)C=Cc1cccc(S(=O)(=O)Nc2cc(-c3cn4nc(Cl)ccc4n3)ccc2C)c1 [compound 607]
< 5.00 | CCOC(=O)C=Cc1cccc(C(=O)Nc2cc(-c3cn4nc(Cl)ccc4n3)ccc2C)c1 [compound 609]
7.31 | Cc1ccc(-c2cn3nc(NC(=O)c4ccccn4)ccc3n2)cc1NC(=O)C(C)(C)C [compound 611]

The remaining lines, values behind:

Structure (SMILES) | pIC50
CC(=O)Nc1ncc(-c2cc(-c3cn4nc(-c5cccnc5C(F)(F)F)ccc4n3)ccc2C)s1 [compound 513] | 6.42
Cc1ccc(-c2cn3nc(-c4cccnc4C(F)(F)F)ccc3n2)cc1N(C)C(=O)C(C)(C)C [compound 514, N-methyl-N-(2-methyl-5-(6-(2-(trifluoromethyl)pyridin-3-yl)imidazo[1,2-b]pyridazin-2-yl)phenyl)pivalamide] | 6.41
COC(=O)CN(C(=O)C(C)(C)C)c1cc(-c2cn3nc(-c4cccnc4C(F)(F)F)ccc3n2)ccc1C [compound 515, methyl 2-(N-(2-methyl-5-(6-(2-(trifluoromethyl)pyridin-3-yl)imidazo[1,2-b]pyridazin-2-yl)phenyl)pivalamido)acetate] | 6.04
COC(=O)CCCCCCN(C(=O)C(C)(C)C)c1cc(-c2cn3nc(-c4cccnc4C(F)(F)F)ccc3n2)ccc1C [compound 516, methyl 7-(N-(2-methyl-5-(6-(2-(trifluoromethyl)pyridin-3-yl)imidazo[1,2-b]pyridazin-2-yl)phenyl)pivalamido)heptanoate] | 5.77
Cc1ccc(-c2cn3nc(-c4cccnc4C(F)(F)F)ccc3n2)cc1-c1nc(C(C)(C)C)cs1 [compound 520] | 6.31
Cc1ccc(-c2cn3nc(-c4ccc(C(=O)N(C)C)cc4)ccc3n2)cc1NC(=O)C(C)(C)C [compound 524] | 6.32
CNC(=O)c1ccc(-c2ccc3nc(-c4ccc(C)c(NC(=O)C(C)(C)C)c4)cn3n2)cc1 [compound 525] | 6.36
Cc1ccc(-c2cn3nc(-c4ccc(NC(=O)CCCCCCC(=O)NO)cc4C(F)(F)F)ccc3n2)cc1NC(=O)C(C)(C)C [compound 530] | 5.18
Cc1ccc(-c2cn3nc(-c4ccc(S(N)(=O)=O)cc4)ccc3n2)cc1NC(=O)C(C)(C)C [compound 534] | 5.84
Cc1ccc(-c2cn3nc(-c4ccc(-c5nnco5)cc4)ccc3n2)cc1NC(=O)C(C)(C)C [compound 539] | 6.46
Cc1ccc(-c2cn3nc(-c4ccc(C(N)=NO)cc4)ccc3n2)cc1NC(=O)C(C)(C)C [compound 546] | 5.95
Cc1nc(-c2ccc(-c3ccc4nc(-c5ccc(C)c(NC(=O)C(C)(C)C)c5)cn4n3)cc2)no1 [compound 549] | 6.69
CCOC(=O)C=Cc1cccc(-c2ccc3nc(-c4ccc(C)c(NC(=O)C(C)(C)C)c4)cn3n2)c1 [compound 551] | 6.44
CCOC(=O)C=Cc1ccc(-c2ccc3nc(-c4ccc(C)c(NC(=O)C(C)(C)C)c4)cn3n2)cc1 [compound 552] | 6.45
Cc1ccc(-c2cn3nc(-c4ccc(C=CC(=O)O)cc4)ccc3n2)cc1NC(=O)C(C)(C)C [compound 555] | 6.46
Cc1ccc(-c2cn3nc(-c4ccc(NC(=O)CCCCCCC(=O)O)cc4)ccc3n2)cc1NC(=O)C(C)(C)C [compound 561] | 5.64

Structure (SMILES) | pIC50
Cc1ccc(-c2cn3nc(-c4ccc(NC(=O)CCCCCCC(=O)NO)cc4)ccc3n2)cc1NC(=O)C(C)(C)C [compound 563] | 6.21
Cc1ccc(-c2cn3nc(-c4cc(C(N)=NO)ccc4C)ccc3n2)cc1NC(=O)C(C)(C)C [compound 577] | 7.20
Cc1ccc(-c2cn3nc(-c4cccc(NC(=O)CCCCCCC(=O)NO)n4)ccc3n2)cc1NC(=O)C(C)(C)C [compound 580, N1-hydroxy-N8-(6-(2-(4-methyl-3-pivalamidophenyl)imidazo[1,2-b]pyridazin-6-yl)pyridin-2-yl)octanediamide] | 5.88
COC(=O)c1ccc(-c2ccc3nc(-c4ccc(C)c(NC(=O)C(C)(C)C)c4)cn3n2)cc1 [compound 582] | 5.94
Cc1ccc(-c2cn3nc(-c4ccc(C(=O)NOC5CCCCO5)cc4)ccc3n2)cc1NC(=O)C(C)(C)C (stereo not shown) [compound 584] | 5.72
Cc1ccc(-c2cn3nc(-c4cccc(C(=O)NOC5CCCCO5)c4)ccc3n2)cc1NC(=O)C(C)(C)C (stereo not shown) [compound 585] | 6.03
Cc1ccc(-c2cn3nc(-c4ccc(C(=N)NN)cc4C(F)(F)F)ccc3n2)cc1NC(=O)C(C)(C)C [compound 586] | 7.06
COc1cc(CNc2ccc3nc(-c4ccc(C)c(NC(=O)C(C)(C)C)c4)cn3n2)cc(OC)c1OC [compound 587] | 6.20
Cc1ccc(-c2cn3nc(-c4ccc(C(=O)NO)cc4)ccc3n2)cc1NC(=O)C(C)(C)C [compound 588] | 5.98
Cc1ccc(-c2cn3nc(-c4ccc(-c5nc(=O)[nH][nH]5)cc4C(F)(F)F)ccc3n2)cc1NC(=O)C(C)(C)C [compound 590] | 6.34
COC(=O)c1ccc(CNc2ccc3nc(-c4ccc(C)c(NC(=O)C(C)(C)C)c4)cn3n2)cc1 [compound 592] | 6.35
Cc1ccc(-c2cn3nc(NS(=O)(=O)c4cccc(Br)c4)ccc3n2)cc1NC(=O)C(C)(C)C [compound 595] | 6.46
CCOC(=O)C=Cc1cccc(S(=O)(=O)Nc2ccc3nc(-c4ccc(C)c(NC(=O)C(C)(C)C)c4)cn3n2)c1 [compound 603] | 5.09
Cc1ccc(-c2cn3nc(NCc4ccc(C(=O)NO)cc4)ccc3n2)cc1NC(=O)C(C)(C)C [compound 604] | 6.80
CCOC(=O)C=Cc1cccc(S(=O)(=O)Nc2cc(-c3cn4nc(C=CC(=O)OCC)ccc4n3)ccc2C)c1 [compound 608] | 5.69
CCOC(=O)C=Cc1cccc(C(=O)Nc2cc(-c3cn4nc(C=CC(=O)OCC)ccc4n3)ccc2C)c1 [compound 610] | 6.33

Same assay, conditions: hShh activation, read-out: Shh (IC50, inhibition of Hedgehog pathway activation)

pIC50 | Structure (SMILES)
6.15 | Cc1ccc(-c2cn3nc(-c4cccnc4C(F)(F)F)ccc3n2)cc1NC(=O)CCCCCCC(=O)O [compound 553, 8-((2-methyl-5-(6-(2-(trifluoromethyl)pyridin-3-yl)imidazo[1,2-b]pyridazin-2-yl)phenyl)amino)-8-oxooctanoic acid]
